According to patent US20230131501A1, “THERAPEUTIC USES OF INHIBITORS OF THE RNA-BINDING PROTEIN HuR” (University of Kansas, priority 2020, published 2023):
Like-named read-outs stand apart in the source and are kept apart here. {Fluorescein} = fluorescein label

Key:
[1] = tested on: HCT116 β/w; assay: Cytotoxicity assay (WST-8); format: cell-based; details: Homo sapiens, HCT-116, 96 h incubation
Experimental: (§1) Cells were seeded in 96-well culture plates (5,000 cells/well) and treated with titrated compounds in triplicate. After 96 h incubation, cell growth medium was removed and proliferation reagent WST-8 (Sigma) was added to each well and incubated at 37° C. for 1-3 h. Absorbance was then measured with a plate reader at 450 nm with correction at 650 nm. The results were expressed as the percentage of absorbance of treated wells versus that of vehicle control.

[2] = tested on: MIAPaCa-2; assay: Cytotoxicity assay (WST-8); format: cell-based; details: Homo sapiens, MIA PaCa-2, 96 h incubation
Experimental: as §1

[3] = target: T1, HuR protein interaction with the ARE site of Msi1 mRNA (HuR-Msi1^ARE) (Homo sapiens, UniProt Q15717); assay: Fluorescence polarization (FP) assay, inhibition of HuR-Msi1 ARE interaction; format: binding; details: full-length human HuR, read-out: Ki via FP assay
T1 construct: full-length human HuR protein was produced by the KU COBRE-PSF Protein Purification Group; made in house
T1 sequence (Q15717 whole entry): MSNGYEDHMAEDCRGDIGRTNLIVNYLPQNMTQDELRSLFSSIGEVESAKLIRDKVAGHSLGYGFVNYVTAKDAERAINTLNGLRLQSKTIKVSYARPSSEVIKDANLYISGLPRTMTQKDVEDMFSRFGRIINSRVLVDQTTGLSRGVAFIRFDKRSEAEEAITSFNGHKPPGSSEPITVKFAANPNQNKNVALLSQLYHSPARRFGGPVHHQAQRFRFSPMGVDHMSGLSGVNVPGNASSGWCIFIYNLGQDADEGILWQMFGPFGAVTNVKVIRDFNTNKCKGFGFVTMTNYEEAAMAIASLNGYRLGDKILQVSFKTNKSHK
From the text: (§2) A fluorescence polarization (FP)-based binding assay was utilized to assess the inhibition of HuR protein interaction with the ARE site of Msi1 mRNA (“HuR-Msi1^ARE”) by compounds of interest. Briefly, full-length human HuR protein was produced by the KU COBRE-PSF Protein Purification Group and Bcl2, Msi1 and XIAP mRNA sequences (16 nt) were designed based on literature precedent^23,24,31,32. Fluorescein labeled RNAs were purchased from Dharmacon with the following sequences: Msi1 RNA: 5′-GCUUUUAUUUAUUUUG-3′-fluorescein; Bcl-2 RNA: 5′-AAAAGAUUUAUUUAUU-3′-fluorescein; XIAP RNA: 5′-UAGUUAUUUUUA UGUC-3′-fluorescein, and a 16-nt degenerative RNA with 3′-fluorescein label was used as a negative control.

[4] = tested on: MDA-MB-231; assay: Cytotoxicity assay (WST-8); format: cell-based; details: Homo sapiens, read-out: Cytotoxicity (IC50, μM) MDA-MB-231
Experimental: as §1, with “The cytotoxicity of the tested compounds in several cancer cell lines (HCT116 β/w, MIAPaCa-2, and MDA-MB-231) was determined by a cytotoxicity assay, where the results are provided in Table 1. Cells” for “Cells”, “control. IC50, the drug concentration causing 50% growth inhibition, was calculated via sigmoid curve fitting using GraphPad Prism 5.0. […]” for “control.”

[5] = tested on: protein levels of HuR targets in MDA-MB-231 cells; assay: Western blot of HuR targets; format: cell-based
Experimental: (§3) As HuR promotes stability of its target mRNAs, it is expected that HuR-inhibitors will block HuR function and shorten the half-life (t1/2) of target mRNAs. mRNA stability was determined via quantitative real-time PCR (qRT-PCR) after co-treatment of compounds of the present technology and Actinomycin D (a transcription inhibitor). […] Because HuR also increases the translation of target mRNAs, the effect of compounds of the present technology was tested on protein levels of HuR targets by Western blot analysis.

[6] = tested on: protein levels of HuR targets in HCT-116 β/w cells; assay: Western blot of HuR targets; format: cell-based
Experimental: as §3

[7] = tested on: HuR target mRNAs (Bcl-2, XIAP, Msi1, HuR) in HCT-116 β/w cells; assay: mRNA stability by qRT-PCR after co-treatment with Actinomycin D; format: cell-based; set-up: dose or concentration left out as unconfirmed
Experimental: HuR target mRNA levels were measured by qRT-PCR.
as §3

[8] = tested on: PARP cleavage, LC3 conversion, and RIP3 activation; assay: Western blot of cell death mechanisms; format: cell-based
From the text: FIGS. 8A-8C provide the results of Western blot analysis illustrating that KH-3 decreases the protein levels of HuR targets in HCT-116 β/w cells (FIG. 8A) and MDA-MB-231 cells (FIG. 8B) and is involved in cell death mechanisms by inducing PARP cleavage, LC3 conversion, and RIP3 activation (FIG. 8C), according to the working examples.
as §3

[9] = tested on: docetaxel-resistant MDA-MB-231 cell line (231-TR); assay: Cytotoxicity assay, docetaxel-resistant cells; format: cell-based; details: 231-TR vs MDA-MB-231
Experimental: (§4) To further mimic clinical conditions and assess overcoming acquired chemo-resistance via compounds of the present technology, docetaxel-resistant and doxorubicin-resistant MDA-MB-231 cells were generated by continuous exposure of cells to increasing concentrations of docetaxel (TXT) or doxorubicin (DXR). Cytotoxicity assays were then performed to assess the chemo-resistance of the produced cell lines as well as assess the sensitivity of such chemo-resistant cell lines to compounds of the present technology.
(§5) Cytotoxicity assays were then performed utilizing concentrations of KH-3 that were below the lethal threshold for the compound (a “sub-lethal concentration”) in combination with docetaxel or doxorubicin to determine whether compounds of the present technology may sensitize cancer cell lines (including chemo-resistance cancer cell lines) to chemotherapy. FIGS. 11A-11B illustrate that sub-lethal concentrations of KH-3 sensitizes both MDA-MB-231 cells and docetaxel-resistant 231-TR cells to docetaxel treatment (FIGS. 11A-11B), and FIGS. 11C-D illustrate that sub-lethal concentrations of KH-3 sensitizes both MDA-MB-231 cells and doxorubicin-resistant 231-DR cells to doxorubicin treatment (FIGS. 11C-11D).

[10] = tested on: Musashi 2 (Msi2) mRNA in PC3 cells; assay: mRNA level of HuR target after chemotherapy; format: cell-based
From the text: FIGS. 1A-1F provide the results of studies illustrating RNA-binding protein Hu antigen R (HuR) is involved in chemo/radiation-induced tumor response, according to the working examples. […] HuR knock-down by siRNA sensitized cancer cells to X-ray radiation, with an enhancement ratio (ER) of 1.5 versus the negative control (NC) siRNA (FIG. 1F).

[11] = tested on: doxorubicin-resistant MDA-MB-231 cell line (231-DR); assay: Cytotoxicity assay, doxorubicin-resistant cells; format: cell-based; details: 231-DR vs MDA-MB-231
Experimental: as §4, §5

[12] = target: T2, full-length human HuR protein (Homo sapiens, UniProt Q15717); assay: FP-based binding of fluorescein-labeled RNAs to HuR; details: 16 nt RNA oligo, FITC-RNA 2 nM; read-out: Kd of HuR binding with fluorescein-labeled target RNA
T2 construct: full-length human HuR protein was produced by the KU COBRE-PSF Protein Purification Group; made in house
T2 sequence (Q15717 whole entry): as above
Experimental: FIG. 3 provides the results of a fluorescence polarization (FP)-based binding assay, illustrating that full length HuR binds to FITC-Bcl-2, Msi1, and XIAP RNA but not to scrambled oligo-FITC, according to the working examples. The concentration of FITC-RNA used in the assay is 2 nM.
as §2

[13] = MDA-MB-231, 96 h incubation, WST-8

Row | Molecule | IC50 [1] | IC50 [2] | Ki [3] | IC50 [4, 13] | also measured
1 | O=C(O)/C=C/c1cc2cc(NS(=O)(=O)c3ccccc3)ccc2s1 [KH-1A, (E)-3-(5-(phenylsulfonamido)benzo[b]thiophen-2-yl)acrylic acid] | > 100 µM | > 100 µM | 5.82 µM | > 100 µM | –
2 | CCOC(=O)/C=C/c1cc2cc(NS(=O)(=O)c3ccccc3)ccc2s1 [KH-1B, (E)-ethyl 3-(5-(phenylsulfonamido)benzo[b]thiophen-2-yl)acrylate] | 35.6 µM | 37.6 µM | > 20 µM | 41.8 µM | –
3 | O=C(/C=C/c1cc2cc(NS(=O)(=O)c3ccccc3)ccc2s1)NO [KH-1] | 0.86 µM | 1.21 µM | 9.2 µM | – | IC50 ([4]; MDA-MB-231, 96 h): 0.98 µM
4 | Cc1ccc(S(=O)(=O)Nc2ccc3sc(/C=C/C(=O)O)cc3c2)cc1 [KH-2A, (E)-3-(5-(4-methylphenylsulfonamido)benzo[b]thiophen-2-yl)acrylic acid] | > 100 µM | > 100 µM | 2.92 µM | > 100 µM | –
5 | CCOC(=O)/C=C/c1cc2cc(NS(=O)(=O)c3ccc(C)cc3)ccc2s1 [KH-2B, (E)-ethyl 3-(5-(4-methylphenylsulfonamido)benzo[b]thiophen-2-yl)acrylate] | 40.1 µM | 39.5 µM | > 20 µM | 43 µM | –
6 | Cc1ccc(S(=O)(=O)Nc2ccc3sc(/C=C/C(=O)NO)cc3c2)cc1 [KH-2] | 1.42 µM | 2.33 µM | 5.55 µM | – | IC50 ([4]; MDA-MB-231, 96 h): 1.46 µM
7 | CC(C)(C)c1ccc(S(=O)(=O)Nc2ccc3sc(/C=C/C(=O)O)cc3c2)cc1 [KH-3A, (E)-3-(5-(4-(tert-butyl)phenylsulfonamido)benzo[b]thiophen-2-yl)acrylic acid] | > 100 µM | > 100 µM | 1.38 µM | > 100 µM | –
8 | CCOC(=O)/C=C/c1cc2cc(NS(=O)(=O)c3ccc(C(C)(C)C)cc3)ccc2s1 [KH-3B, (E)-ethyl 3-(5-(4-(tert-butyl)phenylsulfonamido)benzo[b]thiophen-2-yl)acrylate] | 68.2 µM | 45.5 µM | > 20 µM | 45.6 µM | protein levels of HuR targets [5]: not exhibited; protein levels of HuR targets [6]: not exhibited; stability of HuR target mRNAs (Bcl-2, XIAP, Msi1, HuR mRNA) [7]: not exhibited; cell death mechanisms (PARP cleavage, LC3 conversion, RIP3 activation) [8]: not exhibited
9 | Cc1cc(C)c(S(=O)(=O)Nc2ccc3sc(/C=C/C(=O)O)cc3c2)c(C)c1 [KH-4A, (E)-3-(5-(2,4,6-trimethylphenylsulfonamido)benzo[b]thiophen-2-yl)acrylic acid] | > 100 µM | > 100 µM | 2.92 µM | > 100 µM | –
10 | CCOC(=O)/C=C/c1cc2cc(NS(=O)(=O)c3c(C)cc(C)cc3C)ccc2s1 [KH-4B, (E)-ethyl 3-(5-(2,4,6-trimethylphenylsulfonamido)benzo[b]thiophen-2-yl)acrylate] | 91.4 µM | 30.4 µM | > 20 µM | > 100 µM | –
11 | Cc1cc(C)c(S(=O)(=O)Nc2ccc3sc(/C=C/C(=O)NO)cc3c2)c(C)c1 [KH-4] | – | – | 1.41 µM | – | IC50 ([4]; MDA-MB-231, 96 h): 1.04 µM
12 | CC(=O)O[C@@]12CO[C@@H]1C[C@H](O)[C@@]1(C)C(=O)[C@H](O)C3=C(C)[C@@H](OC(=O)[C@H](O)[C@@H](NC(=O)OC(C)(C)C)c4ccccc4)C[C@@](O)([C@@H](OC(=O)c4ccccc4)[C@H]21)C3(C)C [docetaxel] | – | – | – | – | IC50 in 231-TR compared to parental cell line [9]: more than 8 fold; mRNA levels of HuR target Musashi 2 (Msi2) [10]: increased the mRNA levels
13 | COc1cccc2c1C(=O)c1c(O)c3c(c(O)c1C2=O)C[C@@](O)(C(=O)CO)C[C@@H]3O[C@H]1C[C@H](N)[C@H](O)[C@H](C)O1 [doxorubicin] | – | – | – | – | IC50 in 231-DR compared to parental cell line [11]: about 10 fold
14 | Bcl-2 RNA: Fluorescein labeled 16 nt RNA 5′-AAAAGAUUUAUUUAUU-3′-fluorescein (RNA, 3' {Fluorescein}, backbone not given here) | – | – | – | – | Kd [12]: 0.0063 µM
15 | Msi1 RNA: Fluorescein labeled 16 nt RNA 5′-GCUUUUAUUUAUUUUG-3′-fluorescein (RNA, 3' {Fluorescein}, backbone not given here) | – | – | – | – | Kd [12]: 0.002 µM
16 | XIAP RNA: Fluorescein labeled 16 nt RNA 5′-UAGUUAUUUUUA UGUC-3′-fluorescein (UAGUUAUUUUUAUGUC; RNA, 3' {Fluorescein}, backbone not given here) | – | – | – | – | Kd [12]: 0.0035 µM
